Measurements reported in patent publication US20240336654A1, “ANTIMICROBIAL PEPTIDOMIMETICS” (SPEXIS AG, priority 2021, published 2024).
Where a SMILES comes first, the peptide text is derived from it. Bridges are numbered along the chain shown (N, C = ends). [ ]: non-standard residue; d: D form. Pro(trans-4-F) = O=C(O)[C@@H]1C[C@@H](F)CN1; Pro(cis-4-F) = O=C(O)[C@@H]1C[C@H](F)CN1; Pro(4,4-F2) = O=C(O)[C@@H]1CC(F)(F)CN1; Hyp = O=C(O)[C@@H]1C[C@@H](O)CN1; Pen = CC(C)(S)[C@H](N)C(=O)O; Tle = CC(C)(C)[C@H](N)C(=O)O; dDab = NCC[C@@H](N)C(=O)O; Dab = NCC[C@H](N)C(=O)O; Abu = CC[C@H](N)C(=O)O

What was measured:
Assay type in all cases: cell-based
[1] = test system: human red blood cells (hRBC); details: red cells of human, 1 h, 200 μg/mL
Method: Lyophilized peptides were weighed on a Microbalance (Mettler MT5) and dissolved in sterile water to a final concentration of 1 mg/mL. Stock solutions were kept at +4° C., light protected. The peptides were tested for their hemolytic activity against human red blood cells (hRBC). Fresh hRBC were washed three times with phosphate buffered saline (PBS) and centrifuged for 5 min at 3000×g. Compounds (200 μg/mL) were incubated with 20% hRBC (v/v) for 1 h at 37° C. and shaking at 300 rpm. A value of 0% and 100% cell lyses, respectively, was determined by incubation of hRBC in the presence of PBS and 2.5% Triton X-100 in H2O, respectively. The samples were centrifuged, the supernatants were 8-fold diluted in PBS buffer and the optical densities (OD) were measured at 540 nm. The 100% lyses value (OD540H2O) gave an OD540 of approximately 0.5-1.0. Percent hemolysis was calculated as follows: (OD540peptide/OD540H2O)×100%.

[2] = test system: Escherichia coli ATCC 25922; details: ATCC 25922
Method: (§1) Lyophilized peptides were weighed on a Microbalance (Mettler MT5) and dissolved in sterile water to a final concentration of 1 mg/mL. Stock solutions were kept at +4° C., light protected.
(§2) The selective antimicrobial activities of the peptides were determined in 96-well plates (Greiner, polystyrene) by the standard CLSI broth microdilution method (Clinical and Laboratory Standards Institute. Methods for Dilution Antimicrobial Susceptibility Tests for Bacteria That Grow Aerobically; Approved Standard-Ninth Edition. CLSI document M07-A9 (ISBN 1-56238-783-9 [Print]; ISBN 1-56238-784-7 [Electronic]). Clinical and Laboratory Standards Institute, 950 West Valley Road, Suite 2500, Wayne, Pennsylvania 19087, USA, 2012) with slight modifications.
(§3) Colonies of the microorganisms were diluted in saline (0.85%, NaCl) and adjusted using a McFarland reader (bioMérieux SA, Marcy-l'Etoile, France) to 0.5 McFarland standard. Subsequently, the bacterial suspension was diluted in Mueller-Hinton II (MHII, cation adjusted) broth to give approximately 5×10^5 colony forming units (CFU/mL).
(§4) Inocula of the microorganisms were diluted into Mueller-Hinton II (MH, cation adjusted) broth and compared with a 0.5 McFarland standard to give appr. 10^6 colony forming units (CFU)/mL. Aliquots (90 μl) of inoculate were added to 10 μl of water+P-80 (Polysorbate 80, 0.002% final concentration) containing the peptide in serial two-fold dilutions at 10 fold final concentration. The following microorganisms were used to determine antibiotic selectivity of the peptides: Escherichia coli ATCC 25922, Escherichia coli MCR-1 Af 45 and Klebsiella pneumoniae SSI3010. Antimicrobial activities of the peptides were expressed as the minimal inhibitory concentration (MIC) in μg/mL at which no visible growth was observed after 18-20 hours of incubation at 35° C.

[3] = test system: Escherichia coli MCR-1 Af 45; details: MCR-1 Af 45
Method: as §1, §2, §3, §4

[4] = test system: Klebsiella pneumoniae SSI3010; details: SSI3010
Method: as §1, §2, §3, §4

Row | Structure (SMILES) | Hemolysis at 0.2 g/L [1] | Escherichia coli ATCC 25922 MIC [2] | Escherichia coli MCR-1 Af45 MIC [3] | Klebsiella pneumoniae SSI3010 MIC [4]
1 | CC[C@H](C)[C@H](NC(=O)[C@@H]1C[C@@H](O)CN1C(=O)[C@@H](N)C(C)C)C(=O)N[C@@H]1C(=O)N[C@@H](Cc2ccc(O)cc2)C(=O)N[C@@H](CO)C(=O)N[C@@H](CC(N)=O)C(=O)N[C@@H](CCCNC(=N)N)C(=O)N[C@@H](CCN)C(=O)N[C@@H]([C@@H](C)O)C(=O)N[C@H](CCN)C(=O)N[C@@H](CCCCN)C(=O)N[C@@H](CCN)C(=O)N[C@@H](CCN)C(=O)N[C@H](C(=O)N[C@@H](Cc2ccc(O)cc2)C(=O)O)CSSC1(C)C [Example 1, Val-Hyp-Ile-Pen-Tyr-Ser-Asn-Arg-Dab-Thr-^DDab-Lys-Dab-Dab-Cys-Tyr] (H-V[Hyp]I[Pen]YSNR[Dab]T[dDab]K[Dab][Dab]CY-OH; disulfide 4-15) | <1% | 0.125 µg/mL | 0.03125 µg/mL | 0.25 µg/mL
2 | CC[C@H](N)C(=O)N1C[C@H](O)C[C@H]1C(=O)N[C@H](C(=O)N[C@@H]1C(=O)N[C@@H](Cc2ccc(O)cc2)C(=O)N[C@@H](CO)C(=O)N[C@@H](CC(N)=O)C(=O)N[C@@H](CCCNC(=N)N)C(=O)N[C@@H](CCN)C(=O)N[C@@H]([C@@H](C)O)C(=O)N[C@H](CCN)C(=O)N[C@@H](CCCCN)C(=O)N[C@@H](CCN)C(=O)N[C@@H](CCN)C(=O)N[C@H](C(=O)N[C@@H](Cc2ccc(O)cc2)C(=O)O)CSSC1(C)C)[C@@H](C)CC [Example 2, Abu-Hyp-Ile-Pen-Tyr-Ser-Asn-Arg-Dab-Thr-^DDab-Lys-Dab-Dab-Cys-Tyr] (H-[Abu][Hyp]I[Pen]YSNR[Dab]T[dDab]K[Dab][Dab]CY-OH; disulfide 4-15) | <1% | 0.25 µg/mL | 0.125 µg/mL | 0.25 µg/mL
3 | CC[C@H](C)[C@H](NC(=O)[C@@H]1C[C@@H](O)CN1C(=O)[C@@H](N)C(C)(C)C)C(=O)N[C@@H]1C(=O)N[C@@H](Cc2ccc(O)cc2)C(=O)N[C@@H](CO)C(=O)N[C@@H](CC(N)=O)C(=O)N[C@@H](CCCNC(=N)N)C(=O)N[C@@H](CCN)C(=O)N[C@@H]([C@@H](C)O)C(=O)N[C@H](CCN)C(=O)N[C@@H](CCCCN)C(=O)N[C@@H](CCN)C(=O)N[C@@H](CCN)C(=O)N[C@H](C(=O)N[C@@H](Cc2ccc(O)cc2)C(=O)O)CSSC1(C)C [Example 3, tBuGly-Hyp-Ile-Pen-Tyr-Ser-Asn-Arg-Dab-Thr-^DDab-Lys-Dab-Dab-Cys-Tyr] (H-[Tle][Hyp]I[Pen]YSNR[Dab]T[dDab]K[Dab][Dab]CY-OH; disulfide 4-15) | <1% | 0.125 µg/mL | 0.125 µg/mL | 0.25 µg/mL
4 | CC[C@H](C)[C@H](NC(=O)[C@@H]1CCCN1C(=O)[C@@H](N)C(C)C)C(=O)N[C@@H]1C(=O)N[C@@H](Cc2ccc(O)cc2)C(=O)N[C@@H](CO)C(=O)N[C@@H](CC(N)=O)C(=O)N[C@@H](CCCNC(=N)N)C(=O)N[C@@H](CCN)C(=O)N[C@@H]([C@@H](C)O)C(=O)N[C@H](CCN)C(=O)N[C@@H](CCCCN)C(=O)N[C@@H](CCN)C(=O)N[C@@H](CCN)C(=O)N[C@H](C(=O)N[C@@H](Cc2ccc(O)cc2)C(=O)O)CSSC1(C)C [Example 4, Val-Pro-Ile-Pen-Tyr-Ser-Asn-Arg-Dab-Thr-^DDab-Lys-Dab-Dab-Cys-Tyr] (H-VPI[Pen]YSNR[Dab]T[dDab]K[Dab][Dab]CY-OH; disulfide 4-15) | <1% | 0.0625 µg/mL | 0.0625 µg/mL | 0.125 µg/mL
5 | CC[C@H](C)[C@H](NC(=O)[C@@H]1CCCN1C(=O)[C@@H](N)C(C)C)C(=O)N[C@@H]1C(=O)N[C@@H](Cc2ccc(O)cc2)C(=O)N[C@@H]([C@@H](C)O)C(=O)N[C@@H](CC(N)=O)C(=O)N[C@@H](CCCNC(=N)N)C(=O)N[C@@H](CCN)C(=O)N[C@@H]([C@@H](C)O)C(=O)N[C@H](CCN)C(=O)N[C@@H](CCCCN)C(=O)N[C@@H](CCN)C(=O)N[C@@H](CCN)C(=O)N[C@H](C(=O)N[C@@H](Cc2ccc(O)cc2)C(=O)O)CSSC1(C)C [Example 5, Val-Pro-Ile-Pen-Tyr-Thr-Asn-Arg-Dab-Thr-^DDab-Lys-Dab-Dab-Cys-Tyr] (H-VPI[Pen]YTNR[Dab]T[dDab]K[Dab][Dab]CY-OH; disulfide 4-15) | <1% | 0.125 µg/mL | 0.0625 µg/mL | 0.25 µg/mL
6 | CC[C@H](C)[C@H](NC(=O)[C@@H]1C[C@@H](OC)CN1C(=O)[C@@H](N)C(C)C)C(=O)N[C@@H]1C(=O)N[C@@H](Cc2ccc(O)cc2)C(=O)N[C@@H]([C@@H](C)O)C(=O)N[C@@H](CC(N)=O)C(=O)N[C@@H](CCCNC(=N)N)C(=O)N[C@@H](CCN)C(=O)N[C@@H]([C@@H](C)O)C(=O)N[C@H](CCN)C(=O)N[C@@H](CCCCN)C(=O)N[C@@H](CCN)C(=O)N[C@@H](CCN)C(=O)N[C@H](C(=O)N[C@@H](Cc2ccc(O)cc2)C(=O)O)CSSC1(C)C [Example 6, Val-Pro((4R)OMe)-Ile-Pen-Tyr-Thr-Asn-Arg-Dab-Thr-^DDab-Lys-Dab-Dab-Cys-Tyr] (H-V[Hyp](Me)I[Pen]YTNR[Dab]T[dDab]K[Dab][Dab]CY-OH; disulfide 4-15) | <1% | 0.125 µg/mL | 0.125 µg/mL | 0.25 µg/mL
7 | CC[C@H](C)[C@H](NC(=O)[C@@H]1C[C@H](F)CN1C(=O)[C@@H](N)C(C)C)C(=O)N[C@@H]1C(=O)N[C@@H](Cc2ccc(O)cc2)C(=O)N[C@@H]([C@@H](C)O)C(=O)N[C@@H](CC(N)=O)C(=O)N[C@@H](CCCNC(=N)N)C(=O)N[C@@H](CCN)C(=O)N[C@@H]([C@@H](C)O)C(=O)N[C@H](CCN)C(=O)N[C@@H](CCCCN)C(=O)N[C@@H](CCN)C(=O)N[C@@H](CCN)C(=O)N[C@H](C(=O)N[C@@H](Cc2ccc(O)cc2)C(=O)O)CSSC1(C)C [Example 7, Val-Pro((4S)F)-Ile-Pen-Tyr-Thr-Asn-Arg-Dab-Thr-^DDab-Lys-Dab-Dab-Cys-Tyr] (H-V[Pro(cis-4-F)]I[Pen]YTNR[Dab]T[dDab]K[Dab][Dab]CY-OH; disulfide 4-15) | <1% | 0.125 µg/mL | 0.125 µg/mL | 0.25 µg/mL
8 | CC[C@H](C)[C@H](NC(=O)[C@@H]1C[C@@H](F)CN1C(=O)[C@@H](N)C(C)C)C(=O)N[C@@H]1C(=O)N[C@@H](Cc2ccc(O)cc2)C(=O)N[C@@H]([C@@H](C)O)C(=O)N[C@@H](CC(N)=O)C(=O)N[C@@H](CCCNC(=N)N)C(=O)N[C@@H](CCN)C(=O)N[C@@H]([C@@H](C)O)C(=O)N[C@H](CCN)C(=O)N[C@@H](CCCCN)C(=O)N[C@@H](CCN)C(=O)N[C@@H](CCN)C(=O)N[C@H](C(=O)N[C@@H](Cc2ccc(O)cc2)C(=O)O)CSSC1(C)C [Example 8, Val-Pro((4R)F)-Ile-Pen-Tyr-Thr-Asn-Arg-Dab-Thr-^DDab-Lys-Dab-Dab-Cys-Tyr] (H-V[Pro(trans-4-F)]I[Pen]YTNR[Dab]T[dDab]K[Dab][Dab]CY-OH; disulfide 4-15) | <1% | 0.125 µg/mL | 0.0625 µg/mL | 0.25 µg/mL
9 | CC[C@H](C)[C@H](NC(=O)[C@@H]1CC(F)(F)CN1C(=O)[C@@H](N)C(C)C)C(=O)N[C@@H]1C(=O)N[C@@H](Cc2ccc(O)cc2)C(=O)N[C@@H]([C@@H](C)O)C(=O)N[C@@H](CC(N)=O)C(=O)N[C@@H](CCCNC(=N)N)C(=O)N[C@@H](CCN)C(=O)N[C@@H]([C@@H](C)O)C(=O)N[C@H](CCN)C(=O)N[C@@H](CCCCN)C(=O)N[C@@H](CCN)C(=O)N[C@@H](CCN)C(=O)N[C@H](C(=O)N[C@@H](Cc2ccc(O)cc2)C(=O)O)CSSC1(C)C [Example 9, Val-Pro(4,4F2)-Ile-Pen-Tyr-Thr-Asn-Arg-Dab-Thr-^DDab-Lys-Dab-Dab-Cys-Tyr] (H-V[Pro(4,4-F2)]I[Pen]YTNR[Dab]T[dDab]K[Dab][Dab]CY-OH; disulfide 4-15) | <1% | 0.125 µg/mL | 0.0625 µg/mL | 0.25 µg/mL
